What all share (assay type): biochemical
The target in test [1] is T1, human JAK1 (a.a. 837-1142) (Homo sapiens, UniProt P23458).
T1 construct: human JAK1 (a.a. 837-1142); His tag (N); made in house; host or cells: insect cells (baculovirus)
The test can be described thus: In vitro JAK kinase assay (HTRF, phosphorylation of a biotinylated peptide), JAK1. To be noted: read-out: JAK1 IC50. The method in brief:
(§1)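 Kinase reactions ran at room temperature for 1 h with ATP matched per isoform (JAK1 90 μM, JAK2 30 μM, JAK3 3 μM). After an EDTA stop, the phosphorylated biotin-peptide was read by HTRF using Eu-Py20 and SA-APC after 40 min binding.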
A general note: Time-resolved FRET reads energy transfer from a long-lived donor to a nearby acceptor.

In test [2] the target is T2, human JAK2 (a.a. 828-1132) (Homo sapiens, UniProt O60674).
T2 construct: JAK2 (a.a. 828-1132); His tag (N); made in house; host or cells: insect cells (baculovirus)
T2 sequence (O60674 828-1132): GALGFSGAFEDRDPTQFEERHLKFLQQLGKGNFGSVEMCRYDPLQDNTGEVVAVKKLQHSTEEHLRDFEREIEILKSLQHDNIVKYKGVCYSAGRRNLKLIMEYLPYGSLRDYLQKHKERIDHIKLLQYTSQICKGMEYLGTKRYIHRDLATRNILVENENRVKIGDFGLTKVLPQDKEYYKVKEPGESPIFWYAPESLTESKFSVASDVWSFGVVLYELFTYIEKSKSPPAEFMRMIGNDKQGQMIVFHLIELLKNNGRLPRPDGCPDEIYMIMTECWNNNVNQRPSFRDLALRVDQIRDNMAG
The test can be described thus: In vitro JAK kinase assay (HTRF, phosphorylation of a biotinylated peptide), JAK2. The method in brief: as §1

The target of test [3] is T3, human JAK3 (a.a. 781-1124) (Homo sapiens, UniProt P52333).
T3 construct: JAK3 (a.a. 781-1124); His tag (N); made in house; host or cells: insect cells (baculovirus)
T3 sequence (P52333 781-1124): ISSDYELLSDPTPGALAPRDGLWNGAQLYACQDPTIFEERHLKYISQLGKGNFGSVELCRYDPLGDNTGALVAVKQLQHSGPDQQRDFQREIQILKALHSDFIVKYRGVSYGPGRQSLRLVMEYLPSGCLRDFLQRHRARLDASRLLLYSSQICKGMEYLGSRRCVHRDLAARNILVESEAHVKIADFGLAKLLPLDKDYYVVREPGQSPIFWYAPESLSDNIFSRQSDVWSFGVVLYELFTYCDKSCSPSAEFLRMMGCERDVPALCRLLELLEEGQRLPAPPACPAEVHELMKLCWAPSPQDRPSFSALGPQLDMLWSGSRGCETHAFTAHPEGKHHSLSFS
Description: In vitro JAK kinase assay (HTRF, phosphorylation of a biotinylated peptide), JAK3. The method in brief:
as §1

For another test, the target named is TYK2 (Homo sapiens, UniProt P29597). Description: TYK2 kinase inhibition (Table A1).
Sequence of TYK2 (P29597 whole entry): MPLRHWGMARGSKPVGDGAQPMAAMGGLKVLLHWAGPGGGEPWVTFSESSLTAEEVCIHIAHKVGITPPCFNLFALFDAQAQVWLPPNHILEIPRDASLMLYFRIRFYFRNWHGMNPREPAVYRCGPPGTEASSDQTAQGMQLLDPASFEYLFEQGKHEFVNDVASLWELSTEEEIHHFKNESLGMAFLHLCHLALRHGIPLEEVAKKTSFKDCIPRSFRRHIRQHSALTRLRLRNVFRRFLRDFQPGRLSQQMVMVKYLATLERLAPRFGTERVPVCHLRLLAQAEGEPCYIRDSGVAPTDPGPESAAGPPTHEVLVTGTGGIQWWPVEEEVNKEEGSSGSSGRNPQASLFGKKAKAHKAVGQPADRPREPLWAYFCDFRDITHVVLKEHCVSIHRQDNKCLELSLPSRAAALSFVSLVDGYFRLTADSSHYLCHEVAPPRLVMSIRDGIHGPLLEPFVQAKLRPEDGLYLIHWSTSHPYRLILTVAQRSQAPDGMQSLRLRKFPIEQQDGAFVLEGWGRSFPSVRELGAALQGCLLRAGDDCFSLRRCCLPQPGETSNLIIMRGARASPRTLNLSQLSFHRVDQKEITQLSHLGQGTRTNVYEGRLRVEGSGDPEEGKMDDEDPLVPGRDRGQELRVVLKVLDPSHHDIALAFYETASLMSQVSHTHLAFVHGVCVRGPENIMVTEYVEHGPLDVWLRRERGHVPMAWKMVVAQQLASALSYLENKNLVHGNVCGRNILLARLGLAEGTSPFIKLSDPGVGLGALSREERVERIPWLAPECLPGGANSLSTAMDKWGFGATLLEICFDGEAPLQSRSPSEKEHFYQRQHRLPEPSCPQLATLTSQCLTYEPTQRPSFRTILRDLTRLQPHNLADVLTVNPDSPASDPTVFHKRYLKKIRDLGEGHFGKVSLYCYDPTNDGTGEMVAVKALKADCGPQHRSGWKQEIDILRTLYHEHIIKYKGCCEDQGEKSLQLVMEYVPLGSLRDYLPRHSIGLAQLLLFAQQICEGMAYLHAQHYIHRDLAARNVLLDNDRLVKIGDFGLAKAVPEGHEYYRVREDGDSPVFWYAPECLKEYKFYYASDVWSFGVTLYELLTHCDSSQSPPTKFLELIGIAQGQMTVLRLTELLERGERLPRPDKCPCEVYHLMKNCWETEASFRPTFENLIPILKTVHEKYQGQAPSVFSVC
The target of test [4] is T4, Recombinant Human Anaplastic Lymphoma Kinase (Homo sapiens, UniProt Q9UM73).
T4 construct: purchased Invitrogen, Carlsbad, Calif
T4 sequence (Q9UM73 19-1620): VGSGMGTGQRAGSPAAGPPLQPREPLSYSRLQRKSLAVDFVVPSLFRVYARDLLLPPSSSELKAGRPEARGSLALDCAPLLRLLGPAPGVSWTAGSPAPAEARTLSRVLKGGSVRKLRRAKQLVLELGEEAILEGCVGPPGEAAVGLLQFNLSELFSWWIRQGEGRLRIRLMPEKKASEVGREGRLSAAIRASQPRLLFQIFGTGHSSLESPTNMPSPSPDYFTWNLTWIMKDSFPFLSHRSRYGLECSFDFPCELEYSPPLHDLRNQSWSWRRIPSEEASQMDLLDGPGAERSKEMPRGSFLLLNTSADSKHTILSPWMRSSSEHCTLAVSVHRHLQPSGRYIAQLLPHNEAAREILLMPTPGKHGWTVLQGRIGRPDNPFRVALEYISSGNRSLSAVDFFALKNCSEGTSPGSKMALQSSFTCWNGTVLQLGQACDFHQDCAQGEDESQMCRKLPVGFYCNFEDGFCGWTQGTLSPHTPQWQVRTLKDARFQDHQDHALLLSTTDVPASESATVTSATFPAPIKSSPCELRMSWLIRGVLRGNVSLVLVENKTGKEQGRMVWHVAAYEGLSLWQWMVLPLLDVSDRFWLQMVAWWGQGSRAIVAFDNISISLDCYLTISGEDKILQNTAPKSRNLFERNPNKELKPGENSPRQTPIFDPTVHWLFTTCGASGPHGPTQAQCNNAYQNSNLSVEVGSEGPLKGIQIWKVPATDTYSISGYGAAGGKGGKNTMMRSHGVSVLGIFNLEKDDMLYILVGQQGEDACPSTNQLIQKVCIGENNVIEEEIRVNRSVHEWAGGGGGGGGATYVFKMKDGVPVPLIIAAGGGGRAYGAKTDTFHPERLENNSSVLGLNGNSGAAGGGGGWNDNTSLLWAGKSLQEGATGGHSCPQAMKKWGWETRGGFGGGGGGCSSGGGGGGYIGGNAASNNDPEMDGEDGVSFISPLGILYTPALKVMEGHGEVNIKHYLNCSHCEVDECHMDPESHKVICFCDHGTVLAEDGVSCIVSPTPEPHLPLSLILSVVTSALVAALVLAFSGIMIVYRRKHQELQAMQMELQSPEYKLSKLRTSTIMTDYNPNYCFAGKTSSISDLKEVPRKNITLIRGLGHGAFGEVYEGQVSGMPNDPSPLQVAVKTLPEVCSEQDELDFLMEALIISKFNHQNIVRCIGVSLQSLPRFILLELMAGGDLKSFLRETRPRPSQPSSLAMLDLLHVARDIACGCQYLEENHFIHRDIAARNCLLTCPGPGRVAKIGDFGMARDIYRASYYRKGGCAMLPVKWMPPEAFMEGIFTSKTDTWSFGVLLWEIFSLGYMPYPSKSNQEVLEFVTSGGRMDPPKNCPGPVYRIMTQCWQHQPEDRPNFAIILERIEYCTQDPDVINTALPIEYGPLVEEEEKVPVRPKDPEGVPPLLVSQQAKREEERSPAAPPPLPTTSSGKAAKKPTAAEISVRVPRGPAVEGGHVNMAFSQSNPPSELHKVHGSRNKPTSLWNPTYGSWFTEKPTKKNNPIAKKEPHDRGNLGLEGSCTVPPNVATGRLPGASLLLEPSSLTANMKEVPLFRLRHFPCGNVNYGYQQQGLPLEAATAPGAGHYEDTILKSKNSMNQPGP
The test can be described thus: ALK HTRF kinase assay. The method in brief: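 Kinase activity of the recombinant human protein is measured on a biotinylated peptide, with a Eu-W1024 anti-phosphotyrosine antibody and streptavidin-allophycocyanin generating the homogeneous time-resolved fluorescence signal. Inhibition curves are fitted to yield IC50.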

The mark [5] stands for this setting: method AA1 (90 μM ATP) or AA2 (1000 μM ATP), not stated per value.
[6] abbreviates: method AA1 (30 μM ATP) or AA2 (1000 μM ATP), not stated per value.
The mark [7] stands for this setting: method AA1 (3 μM ATP) or AA2 (1000 μM ATP), not stated per value.
Where [8] appears, read: compound at 500 nM or 1 mM, 90 μM ATP.
Setting [9] is: percentage inhibition of the example compound at a concentration of 500 nM or 1 mM (not specified which).
Setting [10] is: Table B1, cells without percent sign.
Where [11] appears, read: compound at a concentration of 500 nM or 1 mM (not specified), cells shown as percentage.

Molecules are shown by their SMILES. Counter-ions that a name gives are not always drawn. Like-named read-outs stand apart in the source and are kept apart here. Where only a bound is given, the exact number is not on record here.

T1 sequence (P23458 849-1154): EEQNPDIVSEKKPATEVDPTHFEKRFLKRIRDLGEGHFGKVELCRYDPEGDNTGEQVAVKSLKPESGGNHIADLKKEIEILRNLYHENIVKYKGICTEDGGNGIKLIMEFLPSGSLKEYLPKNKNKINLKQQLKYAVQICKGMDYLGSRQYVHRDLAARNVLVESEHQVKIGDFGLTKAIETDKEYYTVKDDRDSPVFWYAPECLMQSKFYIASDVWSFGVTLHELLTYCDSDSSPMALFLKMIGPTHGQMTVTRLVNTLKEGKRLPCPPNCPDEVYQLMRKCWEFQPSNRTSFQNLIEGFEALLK

Regarding `COc1ccc(S(=O)(=O)N2CCC(CC(=O)Nc3ccc4cc3CCc3cncc(c3)Nc3ncc(Cl)c(n3)N4)CC2)cc1` [Example A197, N-[6-Chloro-2,4,8,18,22-pentaazatetracyclo[14.3.1.1(3,7).1(9,13)]docosa-1(20),3(22),4,6,9(21),10,12,16,18-nonaen-12-yl]-2-{1-[(4-methoxyphenyl)sulfonyl]piperidin-4-yl}acetamide bis(trifluoroacetate)], the IC50 was 0.03 µM in test [1] (setting [5]), over 0.2 µM in test [2] (setting [6]), over 0.2 µM in test [3] (setting [7]) and over 0.2 µM against TYK2. Further, the “ALK % of inhibition at a concentration of 500 nM or 1 mM” value (from here on “ALK % of inhibition”) in test [4] (setting [8]) was found to be 39%.
Consider `O=C(Nc1ccc2cc1CCc1cncc(c1)Nc1ncc(Cl)c(n1)N2)N1CCC(c2ccccc2)CC1` [Example B314, N-[6-Chloro-2,4,8,18,22-pentaazatetracyclo[14.3.1.1(3,7).1(9,13)]docosa-1(20),3(22),4,6,9(21),10,12,16,18-nonaen-12-yl]-4-phenylpiperidine-1-carboxamide bis(trifluoroacetate)], for which the IC50 in test [1] (Table B1) is 0.028 µM; in test [2] (Table B1), 0.108 µM; in test [3] (Table B1), over 0.4 µM; on TYK2 (Table B1) it was 0.067 µM. Further, the “ALK % of inhibition” value in test [4] (setting [9]) stood at 69%.
In the same order, the values of `CC(=O)N1CCN(C(=O)Nc2ccc3cc2CCc2cncc(c2)Nc2ncc(Cl)c(n2)N3)CC1` [Example B317, 4-Acetyl-N-[6-chloro-2,4,8,18,22-pentaazatetracyclo[14.3.1.1(3,7).1(9,13)]docosa-1(20),3(22),4,6,9(21),10,12,16,18-nonaen-12-yl]piperazine-1-carboxamide bis(trifluoroacetate)] are 0.057 µM, over 0.4 µM, over 0.4 µM, 0.356 µM and 50%.
For the compound `O=C(Nc1cc2cc(c1)Nc1nc(ncc1Cl)Nc1cccc(c1)CC2)c1ccno1` [Example B206, N-[6-Chloro-2,4,8,22-tetraazatetracyclo[14.3.1.1(3,7).1(9,13)]docosa-1(20),3(22),4,6,9(21),10,12,16,18-nonaen-11-yl]isoxazole-5-carboxamide trifluoroacetate], the IC50 was 0.016 µM in test [1] (Table B1); 0.015 µM in test [2] (Table B1); 0.041 µM in test [3] (Table B1); 0.046 µM at TYK2 (Table B1); over 10 µM in test [4] (setting [10]).
Turning to `O=C(Nc1ccc2cc1CCc1cncc(c1)Nc1ncc(Cl)c(n1)N2)N1CCN(c2ccccn2)CC1` [Example B289, N-[6-Chloro-2,4,8,18,22-pentaazatetracyclo[14.3.1.1(3,7).1(9,13)]docosa-1(20),3(22),4,6,9(21),10,12,16,18-nonaen-12-yl]-4-pyridin-2-ylpiperazine-1-carboxamide tris(trifluoroacetate)], the IC50 in test [1] (Table B1) is 0.017 µM; in test [2] (Table B1), 0.134 µM; in test [3] (Table B1) it was over 0.2 µM; on TYK2 (Table B1), 0.085 µM. The “ALK % of inhibition” value in test [4] (setting [11]) came to 65%.
In the same order, the values of `O=C(Nc1nnn[nH]1)Nc1ccc2cc1CCc1cccc(c1)Nc1ncc(Cl)c(n1)N2` [Example B251, N-[6-Chloro-2,4,8,22-tetraazatetracyclo[14.3.1.1(3,7).1(9,13)]docosa-1(20),3(22),4,6,9(21),10,12,16,18-nonaen-12-yl]-N′-1H-tetrazol-5-ylurea trifluoroacetate] are 0.053 µM, 0.037 µM, 0.0042 µM, 0.014 µM and 44%.
As to `N#Cc1cc(F)c(Cl)nc1N1CCC(CC(=O)Nc2ccc3cc2CCc2cncc(c2)Nc2ncc(Cl)c(n2)N3)CC1` [Example A241, 2-[1-(6-Chloro-3-cyano-5-fluoropyridin-2-yl)piperidin-4-yl]-N-[6-chloro-2,4,8,18,22-pentaazatetracyclo[14.3.1.1(3,7).1(9,13)]docosa-1(20),3(22),4,6,9(21),10,12,16,18-nonaen-12-yl]acetamide tris(trifluoroacetate)], the IC50 in test [1] (setting [5]) is 0.042 µM; in test [2] (setting [6]) it was over 0.4 µM; in test [3] (setting [7]), over 0.4 µM; at TYK2 it was over 0.4 µM. In addition, the “ALK % of inhibition” value in test [4] (setting [8]) came to 14%.
As for `Cn1ccc(C(=O)Nc2ccc3cc2CCc2cccc(c2)Nc2ncc(Cl)c(n2)N3)n1` [Example B31, N-[6-Chloro-2,4,8,22-tetraazatetracyclo[14.3.1.1(3,7).1(9,13)]docosa-1(20), 3(22),4,6,9(21),10,12,16,18-nonaen-12-yl]-1-methyl-1H-pyrazole-3-carboxamide trifluoroacetate], the IC50 in test [1] (Table B1) is 0.0054 µM; in test [2] (Table B1) it was 0.0037 µM; in test [3] (Table B1) it was 0.069 µM; at TYK2 (Table B1), 0.01 µM; in test [4] (setting [10]) it was over 10 µM.
Turning to `O=C(Nc1ncc(Cl)s1)Nc1ccc2cc1CCc1cccc(c1)Nc1ncc(Cl)c(n1)N2` [Example B252, N-[6-Chloro-2,4,8,22-tetraazatetracyclo[14.3.1.1(3,7).1(9,13)]docosa-1(20),3(22),4,6,9(21),10,12,16,18-nonaen-12-yl]-N′-(5-chloro-1,3-thiazol-2-yl)urea trifluoroacetate], the IC50 in test [1] (Table B1) is 0.013 µM; in test [2] (Table B1), 0.026 µM; in test [3] (Table B1), 0.119 µM; against TYK2 (Table B1) it was 0.062 µM. For the same compound, in test [4] (setting [11]), the “ALK % of inhibition” value turned out to be 20%.
For the compound `Cc1ncoc1C(=O)Nc1cc2cc(c1)Nc1nc(ncc1Cl)Nc1cccc(c1)CC2` [Example B210, N-[6-Chloro-2,4,8,22-tetraazatetracyclo[14.3.1.1(3,7).1(9,13)]docosa-1(20),3(22),4,6,9(21),10,12,16,18-nonaen-11-yl]-4-methyl-1,3-oxazole-5-carboxamide trifluoroacetate], the IC50 in test [1] (Table B1) is 0.062 µM; in test [2] (Table B1), 0.042 µM; in test [3] (Table B1) it was 0.076 µM; against TYK2 (Table B1), 0.357 µM; in test [4] (setting [10]), over 1 µM.
Taken in the same sequence, the figures for `O=C(Nc1cc2cc(c1)Nc1nc(ncc1Cl)Nc1cccc(c1)CC2)c1nccs1` [Example B209, N-[6-Chloro-2,4,8,22-tetraazatetracyclo[14.3.1.1(3,7).1(9,13)]docosa-1(20),3(22),4,6,9(21),10,12,16,18-nonaen-11-yl]-1,3-thiazole-2-carboxamide trifluoroacetate] were 0.064 µM, 0.051 µM, 0.14 µM, 0.11 µM and over 1 µM.
Consider `O=C(Nc1cc2cc(c1)OCCSc1cccc(c1)Nc1nc(ncc1Cl)N2)c1ccco1` [Example D62, N-[6-Chloro-17-oxa-14-thia-2,4,8,24-tetraazatetracyclo[16.3.1.1(3,7).1(9,13)]tetracosa-1(22),3(24),4,6,9(23),10,12,18,20-nonaen-20-yl]-2-furamide trifluoroacetate], for which the IC50 in test [1] (Table D1) was 0.0073 µM; in test [2] (Table D1), 0.0021 µM; in test [3] (Table D1), 0.018 µM; against TYK2 (Table D1), 0.0061 µM; in test [4] (Table D1, 90 μM ATP), 0.38 µM.
On to `Cc1cc(C(=O)N2CCC(CC(=O)Nc3ccc4cc3CCc3cncc(c3)Nc3ncc(Cl)c(n3)N4)CC2)no1` [Example A101, N-[6-Chloro-2,4,8,18,22-pentaazatetracyclo[14.3.1.1(3,7).1(9,13)]docosa-1(20),3(22),4,6,9(21),10,12,16,18-nonaen-12-yl]-2-{1-[(5-methylisoxazol-3-yl)carbonyl]piperidin-4-yl}acetamide bis(trifluoroacetate)], for which the IC50 was found to be 0.0005 µM in test [1] (setting [5]), 0.01 µM in test [2] (setting [6]), 0.128 µM in test [3] (setting [7]) and 0.0034 µM against TYK2. Moreover, in test [4] (setting [8]), the “ALK % of inhibition” value worked out at 29%.
`O=C(CC1CCN(C(=O)c2ccc(F)cc2F)CC1)Nc1ccc2cc1CCc1cccc(c1)Nc1ncc(Cl)c(n1)N2` [Example A204, N-[6-Chloro-2,4,8,22-tetraazatetracyclo[14.3.1.1(3,7).1(9,13)]docosa-1(20),3(22),4,6,9(21),10,12,16,18-nonaen-12-yl]-2-[1-(2,4-difluorobenzoyl)piperidin-4-yl]acetamide trifluoroacetate]: the IC50 in test [1] (setting [5]) was 0.02 µM; in test [2] (setting [6]) it was 0.1 µM; in test [3] (setting [7]), over 0.2 µM; against TYK2, over 0.2 µM. Also, the “ALK % of inhibition” value in test [4] (setting [8]) was found to be 28%.

Broadly, the IC50 is the concentration needed to halve the response being measured.
